In patent US8604016B2, “Heterocyclic inhibitors of glutaminase” (Calithera Biosciences Inc., priority 2011, dated 2013):

Each compound was assayed against recombinant form of Glutaminase 1 (GAC) (Homo sapiens, UniProt O94925) (assay: Recombinant Enzyme Assay (GAC coupled to GDH, NADH absorbance, no preincubation)). Details: no preincubation; read-out: GAC Delta N2 IC50 no preinc.
Assay type: biochemical
Method: Enzymatic reaction was started with the addition of 50 μL of enzyme solution (50 mM Tris-HCl pH 8.0, 0.2 mM EDTA, 150 mM K2HPO4, 0.1 mg/ml BSA, 1 mM DTT, 10 ppm antifoam, 4 units/ml GDH, 4 mM adenosine diphosphate, and 4 nM GAC) and read in a Molecular Devices M5 plate reader at 20° C. The plate reader was configured to read absorbance (λ=340 nm) in kinetic mode for 15 minutes. Data was recorded as milli-absorbance units per minute and slopes were compared to a control compound and a DMSO-only control on the same plate. Compounds with slopes less than the DMSO control were considered inhibitors and plate variability was assessed using the control compound.

IC50	Compound
13 µM	CC(C)CC(=O)Nc1nnc(CCSCCc2nnc(NC(=O)CC(C)C)s2)s1 [Compound 4]
> 50 µM	CC(=O)OCC(=O)Nc1nnc(CCSCCc2nnc(NC(=O)COC(C)=O)s2)s1 [Compound 5]
> 50 µM	CN(C(=O)Cc1ccccc1)c1nnc(CCSCCc2nnc(N(C)C(=O)Cc3ccccc3)s2)s1 [Compound 6]
> 50 µM	CCCC(=O)OCN(C(=O)Cc1ccccc1)c1nnc(CCSCCc2nnc(NC(=O)Cc3ccccc3)s2)s1 [Compound 7]
> 50 µM	CCCC(=O)OCN(C(=O)Cc1ccccc1)c1nnc(CCSCCc2nnc(N(COC(=O)CCC)C(=O)Cc3ccccc3)s2)s1 [Compound 8]
> 50 µM	CC(CCc1nnc(NC(=O)Cc2ccccc2)s1)CCc1nnc(NC(=O)Cc2ccccc2)s1 [Compound 9]
> 50 µM	CC(C)(CCc1nnc(NC(=O)Cc2ccccc2)s1)CCc1nnc(NC(=O)Cc2ccccc2)s1 [Compound 10]
2.8 µM	CC(=O)OCC(C(=O)Nc1nnc(CCSCCc2nnc(NC(=O)C(COC(C)=O)c3ccccc3)s2)s1)c1ccccc1 (centres unmarked) [Compound 14]
> 50 µM	CC(C)(C)C(=O)OCN(C(=O)Cc1ccccc1)c1nnc(CCSCCc2nnc(NC(=O)Cc3ccccc3)s2)s1 [Compound 15]
> 50 µM	CC(C)(C)C(=O)OCN(C(=O)Cc1ccccc1)c1nnc(CCSCCc2nnc(N(COC(=O)C(C)(C)C)C(=O)Cc3ccccc3)s2)s1 [Compound 16]
4.5 µM	C=CCCC(=O)Nc1nnc(CCSCCc2nnc(NC(=O)CCC=C)s2)s1 [Compound 18]
11 µM	CC(C(=O)Nc1nnc(CCSCCc2nnc(NC(=O)C(C)c3ccccc3)s2)s1)c1ccccc1 (centres unmarked) [Compound 19]
6.6 µM	CC(C(=O)Nc1nnc(CCSCCc2nnc(N)s2)s1)c1ccccc1 (centres unmarked) [Compound 20]
> 50 µM	O=C(Nc1nnc(CCSCCc2nnc(NC(=O)[C@@H]3CCCN3C(=O)C(F)(F)F)s2)s1)[C@@H]1CCCN1C(=O)C(F)(F)F [Compound 22]
> 50 µM	Nc1nnc(CCSCCc2nnc(NC(=O)[C@@H]3CCCN3C(=O)C(F)(F)F)s2)s1 [Compound 23]
1.2 µM	CC(=O)Nc1nnc(CCSCCc2nnc(NC(=O)Cc3ccccc3)s2)s1 [Compound 25]
> 50 µM	O=C(Cc1ccccc1)Nc1nnc(CCSCCc2nnc(N(COC(=O)OCCCN3CCOCC3)C(=O)Cc3ccccc3)s2)s1 [Compound 27]
> 50 µM	O=C(OCCCN1CCOCC1)OCN(C(=O)Cc1ccccc1)c1nnc(CCSCCc2nnc(N(COC(=O)OCCCN3CCOCC3)C(=O)Cc3ccccc3)s2)s1 [Compound 28]
1.2 µM	O=C(Nc1nnc(CCCCCc2nnc(NC(=O)C(CO)c3ccccc3)s2)s1)C(CO)c1ccccc1 (centres unmarked) [Compound 30]
> 50 µM	COC(=O)c1cccc(NC(=O)Nc2nnc(CCSCCc3nnc(NC(=O)Nc4cccc(C(=O)OC)c4)s3)s2)c1 [Compound 31]
7 µM	CC(C)[C@H](N)C(=O)Nc1nnc(CCSCCc2nnc(NC(=O)Cc3ccccc3)s2)s1 [Compound 32]
13 µM	CC(C)[C@H](NC(=O)OC(C)(C)C)C(=O)Nc1nnc(CCSCCc2nnc(NC(=O)Cc3ccccc3)s2)s1 [Compound 33]

IC50	Compound
> 50 µM	CC(C)[C@H](NC(=O)OC(C)(C)C)C(=O)Nc1nnc(CCSCCc2nnc(NC(=O)[C@@H](NC(=O)OC(C)(C)C)C(C)C)s2)s1 [Compound 34]
18 µM	O=C(Cc1ccccc1)Nc1nnc(CCSCCc2nnc(NC(=O)[C@@H]3CCCN3C(=O)C(F)(F)F)s2)s1 [Compound 35]
> 50 µM	O=C(Nc1nnc(CCSCCc2nnc(NC(=O)C3CCc4ccccc4C3)s2)s1)C1CCc2ccccc2C1 (centres unmarked) [Compound 37]
> 50 µM	O=C(Nc1nnc(CCSCCc2nnc(NC(=O)C3CC4CCC3C4)s2)s1)C1CC2CCC1C2 (centres unmarked) [Compound 38]
26 µM	O=C(Nc1nnc(CCSCCc2nnc(NC(=O)C3CCCO3)s2)s1)C1CCCO1 (centres unmarked) [Compound 39]
3.7 µM	O=C(Nc1nnc(CCSCCc2nnc(NC(=O)C3CCCC3)s2)s1)C1CCCC1 [Compound 40]
7.9 µM	O=C(Nc1nnc(CCSCCc2nnc(NC(=O)C3COc4ccccc4O3)s2)s1)C1COc2ccccc2O1 (centres unmarked) [Compound 41]
> 50 µM	CC(C)[C@H](NC(=O)OC(C)(C)C)C(=O)Nc1nnc(CCCCc2nnc(NC(=O)[C@@H](NC(=O)OC(C)(C)C)C(C)C)s2)s1 [Compound 42]
2.3 µM	O=C(COc1ccccc1)Nc1nnc(CCCCc2nnc(NC(=O)COc3ccccc3)s2)s1 [Compound 43]
4.9 µM	CC(CCc1nnc(NC(=O)Cc2ccccc2)s1)Cc1nnc(NC(=O)Cc2ccccc2)s1 (centres unmarked) [Compound 44]
> 50 µM	O=C(Nc1nnc(CCCCc2nnc(NC(=O)C(F)(F)F)s2)s1)C(F)(F)F [Compound 45]
> 50 µM	CC(C)(C)OC(=O)N[C@@H](C(=O)Nc1nnc(CCSCCc2nnc(NC(=O)[C@H](NC(=O)OC(C)(C)C)c3ccccc3)s2)s1)c1ccccc1 [Compound 46]
8.3 µM	N[C@@H](C(=O)Nc1nnc(CCSCCc2nnc(NC(=O)[C@H](N)c3ccccc3)s2)s1)c1ccccc1 [Compound 47]
> 50 µM	O=C(CC1CCCCC1)Nc1nnc(CCSCCc2nnc(NC(=O)CC3CCCCC3)s2)s1 [Compound 48]
36 µM	C[C@H](NC(=O)OC(C)(C)C)C(=O)Nc1nnc(CCSCCc2nnc(NC(=O)[C@H](C)NC(=O)OC(C)(C)C)s2)s1 [Compound 49]
2.5 µM	O=C(Nc1nnc(CCSCCc2nnc(NC(=O)C3Cc4ccccc4O3)s2)s1)C1Cc2ccccc2O1 (centres unmarked) [Compound 50]
1.2 µM	O=C(Nc1nnc(CCCCc2nnc(NC(=O)C3Cc4ccccc4O3)s2)s1)C1Cc2ccccc2O1 (centres unmarked) [Compound 51]
8.3 µM	O=C(Nc1nnc(CCCCc2nnc(NC(=O)C3COc4ccccc4O3)s2)s1)C1COc2ccccc2O1 (centres unmarked) [Compound 52]
> 50 µM	O=C(Nc1nnc(CCCCc2nnc(NC(=O)C3CCCC3)s2)s1)C1CCCC1 [Compound 53]
9.2 µM	O=C(Nc1nnc(CCCCc2nnc(NC(=O)C3CCCO3)s2)s1)C1CCCO1 (centres unmarked) [Compound 54]
> 50 µM	O=C(Nc1nnc(CCCCc2nnc(NC(=O)C3CC4CCC3C4)s2)s1)C1CC2CCC1C2 (centres unmarked) [Compound 55]
> 50 µM	CC(O)(C(=O)Nc1nnc(CCSCCc2nnc(N)s2)s1)C(F)(F)F (centres unmarked) [Compound 56]

IC50	Compound
40 µM	O=C(Cn1cccn1)Nc1nnc(CCSCCc2nnc(NC(=O)Cn3cccn3)s2)s1 [Compound 57]
> 50 µM	O=C(CC1CCCC1)Nc1nnc(CCSCCc2nnc(NC(=O)CC3CCCC3)s2)s1 [Compound 58]
> 50 µM	O=C(Nc1nnc(CCSCCc2nnc(NC(=O)C3(C(F)(F)F)CC3)s2)s1)C1(C(F)(F)F)CC1 [Compound 59]
24 µM	O=C(Cn1cccn1)Nc1nnc(CCCCc2nnc(NC(=O)Cn3cccn3)s2)s1 [Compound 60]
> 50 µM	O=C(CC1CCCC1)Nc1nnc(CCCCc2nnc(NC(=O)CC3CCCC3)s2)s1 [Compound 61]
> 50 µM	O=C(Nc1nnc(CCCCc2nnc(NC(=O)C3(C(F)(F)F)CC3)s2)s1)C1(C(F)(F)F)CC1 [Compound 62]
25 µM	CC(C)(C)OC(=O)N1CCN(C(C(=O)Nc2nnc(CCCCc3nnc(NC(=O)C(c4ccccc4)N4CCN(C(=O)OC(C)(C)C)CC4)s3)s2)c2ccccc2)CC1 (centres unmarked) [Compound 63]
1.3 µM	O=C1CC(C(=O)Nc2nnc(CCCCc3nnc(NC(=O)C4CC(=O)c5ccccc54)s3)s2)c2ccccc21 (centres unmarked) [Compound 64]
1.3 µM	COC(C(=O)Nc1nnc(CCCCc2nnc(NC(=O)C(OC)c3ccccc3)s2)s1)c1ccccc1 (centres unmarked) [Compound 65]
20 µM	CC(=O)O[C@H](C(=O)Nc1nnc(CCCCc2nnc(NC(=O)[C@@H](OC(C)=O)c3ccccc3)s2)s1)c1ccccc1 [Compound 66]
3 µM	COC(C(=O)Nc1nnc(CCSCCc2nnc(NC(=O)C(OC)c3ccccc3)s2)s1)c1ccccc1 (centres unmarked) [Compound 67]
4.9 µM	O=CO[C@@H](C(=O)Nc1nnc(CCCCc2nnc(NC(=O)[C@H](OC=O)c3ccccc3)s2)s1)c1ccccc1 [Compound 68]
0.69 µM	O=C(Nc1nnc(CCCCc2nnc(NC(=O)C(O)Cc3ccccc3)s2)s1)C(O)Cc1ccccc1 (centres unmarked) [Compound 69]
3.4 µM	CC(C)(C)OC(=O)N1CCN(C(C(=O)Nc2nnc(CCSCCc3nnc(NC(=O)Cc4ccccc4)s3)s2)c2ccccc2)CC1 (centres unmarked) [Compound 70]
> 50 µM	CC(=O)O[C@H](C(=O)Nc1nnc(CCSCCc2nnc(NC(=O)[C@@H](OC(C)=O)c3ccccc3)s2)s1)c1ccccc1 [Compound 71]
> 50 µM	CC(C)[C@H](N)C(=O)Nc1nnc(CCCCc2nnc(NC(=O)[C@@H](N)C(C)C)s2)s1 [Compound 73]
> 50 µM	C[C@H](N)C(=O)Nc1nnc(CCSCCc2nnc(NC(=O)[C@H](C)N)s2)s1 [Compound 74]
> 50 µM	O=C(CCc1ccccc1)Nc1nnc(CCSCCc2nnc(NC(=O)CCc3ccccc3)s2)s1 [Compound 75]
> 50 µM	CC(C)(C)OC(=O)N1CCN(C(C(=O)Nc2nnc(CCSCCc3nnc(NC(=O)C(c4ccccc4)N4CCN(C(=O)OC(C)(C)C)CC4)s3)s2)c2ccccc2)CC1 (centres unmarked) [Compound 76]
6.1 µM	O=C(Nc1nnc(CCCCc2nnc(NC(=O)C(c3ccccc3)N3CCNCC3)s2)s1)C(c1ccccc1)N1CCNCC1 (centres unmarked) [Compound 77]
1.8 µM	O=C(Nc1nnc(CCCCc2nnc(NC(=O)[C@H](O)c3ccccc3)s2)s1)[C@H](O)c1ccccc1 [Compound 80]

Compound	IC50
COc1ccc(C(=O)Nc2nnc(CCSCCc3nnc(NC(=O)c4ccc(OC)cc4)s3)s2)cc1 [Compound 3]	> 50 µM
O=C(CN1CCOCC1)Nc1nnc(CCSCCc2nnc(NC(=O)CN3CCOCC3)s2)s1 [Compound 12]	> 50 µM

Same assay, conditions: read-out: GAC Delta N2 IC50 no preinc

Compound	IC50
O=C(Nc1nnc(CCSCCc2nnc(NC(=O)c3ccccc3)s2)s1)c1ccccc1 [Compound 2]	4.1 µM
